A short description of data set [1]: Half life in Sprague-Dawley rat at 1 mg/kg, iv by LC-MS/MS analysis. Type of data set: ADME, organism-based. The conditions noted are these: in vivo.
A further data set relates to Rattus norvegicus. Description: Time at which plasma concentration stays above in vitro human whole blood IC50 in Crl:CD(SD) rat peritonitis model at 2 mg/kg, po. The format is ADME, organism-based. The conditions noted are these: in vivo.
Data set [2] can be described thus: Fraction unbound in Sprague-Dawley rat plasma. Type of data set: ADME, cell-free.
Data set [3] in a line: Clearance in Sprague-Dawley rat at 2 mg/kg, iv or 2 mg/kg, po by LC-MS/MS analysis. Type of data set: ADME, organism-based. The conditions noted are these: in vivo.
A short description of data set [4]: Half life in Sprague-Dawley rat at 2 mg/kg, iv by LC-MS/MS analysis. Type of data set: ADME, organism-based. The conditions noted are these: in vivo.
Data set [5] can be described thus: AUC in Sprague-Dawley rat at 2 mg/kg, po by LC-MS/MS analysis. The conditions noted are these: in vivo. The format is ADME, organism-based.
A short description of data set [6]: Cmax in Sprague-Dawley rat at 2 mg/kg, po by LC-MS/MS analysis. Type of data set: ADME, organism-based. The arrangement: dose 2 mg/kg, route oral. The conditions noted are these: in vivo.
The nature of data set [7]: Oral bioavailability in Sprague-Dawley rat at 2 mg/kg by LC-MS/MS analysis. Type of data set: ADME, organism-based. The conditions noted are these: in vivo.
A short description of data set [8]: Volume of distribution at steady state in Sprague-Dawley rat at 2 mg/kg, iv or 2 mg/kg, po by LC-MS/MS analysis. Type of data set: ADME, organism-based. The conditions noted are these: in vivo, read-out: Vdss.
A short description of data set [9]: Oral bioavailability in Beagle dog at 2 mg/kg by LC-MS/MS analysis. Type of data set: ADME, organism-based, Canis lupus familiaris. The conditions noted are these: in vivo.
The nature of data set [10]: Cardiotoxicity in arterially perfused rabbit cardiac left ventricular wedge assessed as QRS interval time at 0.3 uM by electrophysiology assay (reference value: 33.9 +/- 2.7 milliseconds). Type of data set: toxicity, tissue-based, Oryctolagus cuniculus, Heart left ventricle.
Data set [11] in a line: Cardiotoxicity in arterially perfused rabbit cardiac left ventricular wedge assessed as change in isometric contractile force at 3 uM by electrophysiology assay (reference value: 0%). The format is toxicity, tissue-based, Oryctolagus cuniculus, Heart left ventricle.
The nature of data set [12]: Cardiotoxicity in arterially perfused rabbit cardiac left ventricular wedge assessed as Tp-e interval by electrophysiology assay. The format is toxicity, tissue-based, Oryctolagus cuniculus, Heart left ventricle.
Data set [13] can be described thus: Half life in Beagle dog at 1.1 mg/kg, iv by LC-MS/MS analysis. The format is ADME, organism-based, Canis lupus familiaris. The conditions noted are these: in vivo.
Data set [14] can be described thus: Cardiotoxicity in arterially perfused rabbit cardiac left ventricular wedge assessed as Tp-e interval time at 0.3 uM by electrophysiology assay (reference value: 59.2 +/- 4.8 milliseconds). Type of data set: toxicity, tissue-based, Oryctolagus cuniculus, Heart left ventricle.
The nature of data set [15]: Cardiotoxicity in arterially perfused rabbit cardiac left ventricular wedge assessed as change in QT interval at 10 uM by electrophysiology assay. Type of data set: toxicity, tissue-based, Oryctolagus cuniculus, Heart left ventricle.
A short description of data set [16]: Cardiotoxicity in arterially perfused rabbit cardiac left ventricular wedge assessed as change in isometric contractile force at 10 uM by electrophysiology assay (reference value: 0%). Type of data set: toxicity, tissue-based, Oryctolagus cuniculus, Heart left ventricle.
Data set [17] in a line: Cardiotoxicity in arterially perfused rabbit cardiac left ventricular wedge assessed as QRS interval time at 3 uM by electrophysiology assay (reference value: 33.9 +/- 2.7 milliseconds). Type of data set: toxicity, tissue-based, Oryctolagus cuniculus, Heart left ventricle.
Data set [18] is described as follows: Cardiotoxicity in arterially perfused rabbit cardiac left ventricular wedge assessed as change in isometric contractile force at 1 uM by electrophysiology assay (reference value: 0%). Type of data set: toxicity, tissue-based, Oryctolagus cuniculus, Heart left ventricle.
Data set [19] is described as follows: Cardiotoxicity in arterially perfused rabbit cardiac left ventricular wedge assessed as prolongation of QT interval by electrophysiology assay. Type of data set: toxicity, tissue-based, Oryctolagus cuniculus, Heart left ventricle.
A short description of data set [20]: Cardiotoxicity in arterially perfused rabbit cardiac left ventricular wedge assessed as change in QT interval at 1 uM by electrophysiology assay. Type of data set: toxicity, tissue-based, Oryctolagus cuniculus, Heart left ventricle.
Data set [21] in a line: Cmax in Beagle dog at 2 mg/kg, po by LC-MS/MS analysis. The arrangement: dose 2 mg/kg, route oral. The format is ADME, organism-based, Canis lupus familiaris. The conditions noted are these: in vivo.
Data set [22] is described as follows: Cardiotoxicity in arterially perfused rabbit cardiac left ventricular wedge assessed as change in isometric contractile force at 0.3 uM by electrophysiology assay (reference value: 0%). Type of data set: toxicity, tissue-based, Oryctolagus cuniculus, Heart left ventricle.
Data set [23] can be described thus: Cardiotoxicity in arterially perfused rabbit cardiac left ventricular wedge assessed as Tp-e interval time at 1 uM by electrophysiology assay (reference value: 59.2 +/- 4.8 milliseconds). The format is toxicity, tissue-based, Oryctolagus cuniculus, Heart left ventricle.
A short description of data set [24]: Clearance in Beagle dog at 1.1 mg/kg, iv or 2 mg/kg, po by LC-MS/MS analysis. Type of data set: ADME, organism-based, Canis lupus familiaris. The conditions noted are these: in vivo.
Data set [25] can be described thus: Cardiotoxicity in arterially perfused rabbit cardiac left ventricular wedge assessed as Tp-e interval time at 3 uM by electrophysiology assay (reference value: 59.2 +/- 4.8 milliseconds). The format is toxicity, tissue-based, Oryctolagus cuniculus, Heart left ventricle.
A short description of data set [26]: Cardiotoxicity in arterially perfused rabbit cardiac left ventricular wedge assessed as QRS interval time at 1 uM by electrophysiology assay (reference value: 33.9 +/- 2.7 milliseconds). Type of data set: toxicity, tissue-based, Oryctolagus cuniculus, Heart left ventricle.
The nature of data set [27]: Cardiotoxicity in arterially perfused rabbit cardiac left ventricular wedge assessed as QRS interval time at 10 uM by electrophysiology assay (reference value: 33.9 +/- 2.7 milliseconds). Type of data set: toxicity, tissue-based, Oryctolagus cuniculus, Heart left ventricle.
Data set [28] in a line: Volume of distribution at steady state in Beagle dog at 1.1 mg/kg, iv or 2 mg/kg, po by LC-MS/MS analysis. Type of data set: ADME, organism-based, Canis lupus familiaris. The conditions noted are these: in vivo, read-out: Vdss.
The nature of data set [29]: Cardiotoxicity in arterially perfused rabbit cardiac left ventricular wedge assessed as Tp-e interval time at 10 uM by electrophysiology assay (reference value: 59.2 +/- 4.8 milliseconds). Type of data set: toxicity, tissue-based, Oryctolagus cuniculus, Heart left ventricle.
Data set [30] in a line: Clearance in Sprague-Dawley rat at 1.1 mg/kg, iv or 2 mg/kg, po by LC-MS/MS analysis. Type of data set: ADME, organism-based. The conditions noted are these: in vivo.
The nature of data set [31]: Volume of distribution at steady state in Sprague-Dawley rat at 1.1 mg/kg, iv or 2 mg/kg, po by LC-MS/MS analysis. The format is ADME, organism-based. The conditions noted are these: in vivo, read-out: Vdss.
The nature of data set [32]: Cardiotoxicity in arterially perfused rabbit cardiac left ventricular wedge assessed as change in QT interval at 0.3 uM by electrophysiology assay. The format is toxicity, tissue-based, Oryctolagus cuniculus, Heart left ventricle.
A short description of data set [33]: AUC in Beagle dog at 2 mg/kg, po by LC-MS/MS analysis. The conditions noted are these: in vivo. Type of data set: ADME, organism-based, Canis lupus familiaris.
A short description of data set [34]: Fraction unbound in Beagle dog plasma. The format is ADME, cell-free, Canis lupus familiaris.
Data set [35] can be described thus: Half life in Sprague-Dawley rat at 1.1 mg/kg, iv by LC-MS/MS analysis. The format is ADME, organism-based. The conditions noted are these: in vivo.
A short description of data set [36]: Cardiotoxicity in arterially perfused rabbit cardiac left ventricular wedge assessed as change in QT interval at 3 uM by electrophysiology assay. The format is toxicity, tissue-based, Oryctolagus cuniculus, Heart left ventricle.

The half-life is the time in which the quantity being followed falls by half. The term fraction unbound denotes the share of the substance not bound to proteins or other matrix. Read a high fraction unbound as much free substance. In the case of `CC(C)(C)S(=O)(=O)c1ccc2nccc(Nc3n[nH]c4ccc(F)cc34)c2c1`, the half-life in [1] was 7 h. This compound showed a Time in the data set on Rattus norvegicus of 4 h. This compound also came in with a free fraction (fraction unbound) in data set [2] of 0.026.

One may read the AUC as concentration integrated over time. The low end stands for less exposure, the high end for more exposure. What is called Cmax is the maximum level reached in the sampled fluid or tissue. A word on the bioavailability: it is the share of a dose that reaches the circulation, judged against a reference dose that is usually intravenous. A lower bioavailability goes with little systemic uptake. Turning to `Cc1[nH]nc(Nc2ccnc3ccc(S(=O)(=O)C(C)(C)C)cc23)c1C`, the clearance in data set [3] is 12 mL/min/kg. Also, the half-life in data set [4] was 4.2 h. For the same compound, the exposure (AUC) in data set [5] worked out at 3800 ng·h/mL. The compound further registered a Cmax in data set [6] of 990 ng/mL. In addition, the bioavailability in data set [7] turned out to be 82%. In addition, in [2], the unbound share (fraction unbound) worked out at 0.112. For the same compound, the Vd in data set [8] came to 2.1 L/kg.

As for `COc1cc2nccc(Nc3n[nH]c(C)c3C)c2cc1S(=O)(=O)C(C)(C)C`, the bioavailability in data set [9] stood at 96%; in [7], 85%. Also, the Time is listed as 34.9 ms in data set [10]; 64.2 ms in data set [14]; 35.2 ms in [17]; 67.9 ms in data set [23]; 73.3 ms in [25]; 35.4 ms in data set [26]. In addition, the Time was found to be 36.3 ms in [27], 77 ms in data set [29] and 24 h with Rattus norvegicus. Besides, the Activity in data set [11] is listed as -22.6%; in [12], “Dose-dependent effect”; in [15], 9.3%; in data set [16], -28%; in data set [18] it was -17.3%; in data set [19] it was “Dose-dependent effect”. Moreover, the Activity in data set [20] is given as 3.6%; in [22], -9.9%; in data set [32] it was 2%; in data set [36] it was 6.4%. For the same compound, the values for the half-life in data set [13] and in data set [35] were 2.5 h and 3.1 h, respectively. In addition, the area under the curve (AUC) in data set [5] came to 2400 ng·h/mL; in data set [33] it was 1900 ng·h/mL. Moreover, the maximum concentration (Cmax) came to 740 ng/mL in [6] and 330 ng/mL in data set [21]. The clearance in data set [24] stood at 20 mL/min/kg; in data set [30] it was 12 mL/min/kg. In addition, the Vd in [28] turned out to be 3.5 L/kg; in [31], 1.1 L/kg. Besides, the fraction unbound in data set [34] is 0.163; in [2] it was 0.055.

The values above are taken from ChEMBL document CHEMBL4266012, “Identification of Quinoline-Based RIP2 Kinase Inhibitors with an Improved Therapeutic Index to the hERG Ion Channel” (ACS Med Chem Lett, 2018).
